Measurements: patent US20230151025A1, “SUBSTITUTED THIAZOLOPYRIDINES, SALTS THEREOF AND THEIR USE AS HERBICIDALLY ACTIVE SUBSTANCES” (Bayer Aktiengesellschaft, priority 2020, published 2023)

What was measured:
Assay type in all cases: in vivo
[1] = tested on: Abutilon theophrasti (ABUTH); assay: Herbicidal pre-emergence action (A), 1280 g/ha; conditions: visual grading after ca. 3 weeks vs untreated controls, 100% = plants have died off, 0% = as control plants
Outline: (§1)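 Greenhouse pre-emergence test: formulated compound (WP/EC plus 0.5% additive, 600 l/ha water) applied to the soil over sown seeds in sandy loam. Percent herbicidal effect was rated by eye after ca. 3 weeks relative to untreated pots.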

[2] = tested on: Alopecurus myosuroides (ALOMY); assay: Herbicidal pre-emergence action (A), 1280 g/ha; conditions: visual grading after ca. 3 weeks vs untreated controls, 100% = plants have died off, 0% = as control plants
Outline: as §1

[3] = tested on: Amaranthus retroflexus (AMARE); assay: Herbicidal pre-emergence action (A), 1280 g/ha; conditions: visual grading after ca. 3 weeks vs untreated controls
Outline: as §1

[4] = tested on: Digitaria sanguinalis (DIGSA); assay: Herbicidal pre-emergence action (A), 1280 g/ha; conditions: visual grading after ca. 3 weeks vs untreated controls, 100% = plants have died off, 0% = as control plants
Outline: as §1

[5] = tested on: Echinochloa crus-galli (ECHCG); assay: Herbicidal pre-emergence action (A), 1280 g/ha; conditions: visual grading after ca. 3 weeks vs untreated controls, 100% = plants have died off, 0% = as control plants
Outline: as §1

[6] = tested on: Kochia scoparia (KCHSC; Bassia scoparia); assay: Herbicidal pre-emergence action (A), 1280 g/ha; conditions: visual grading after ca. 3 weeks vs untreated controls
Outline: as §1

Lolium rigidum (LOLRI) [7] = assay: Herbicidal pre-emergence action (A), 1280 g/ha; conditions: visual grading after ca. 3 weeks vs untreated controls, 100% = plants have died off, 0% = as control plants
Outline: as §1

[8] = tested on: Matricaria inodora (MATIN); assay: Herbicidal pre-emergence action (A), 1280 g/ha; conditions: visual grading after ca. 3 weeks vs untreated controls
Outline: as §1

Poa annua (POAAN) = assay: Herbicidal pre-emergence action (A), 1280 g/ha; conditions: visual grading after ca. 3 weeks vs untreated controls, 100% = plants have died off, 0% = as control plants
Outline: as §1

Setaria viridis (SETVI) [9] = assay: Herbicidal pre-emergence action (A), 1280 g/ha; conditions: visual grading after ca. 3 weeks vs untreated controls
Outline: as §1

Stellaria media (STEME) [10] = assay: Herbicidal pre-emergence action (A), 1280 g/ha; conditions: visual grading after ca. 3 weeks vs untreated controls
Outline: as §1

Veronica persica (VERPE) [11] = assay: Herbicidal pre-emergence action (A), 1280 g/ha; conditions: visual grading after ca. 3 weeks vs untreated controls
Outline: as §1

[12] = tested on: Amaranthus retroflexus (AMARE); assay: Herbicidal post-emergence action (B), 1280 g/ha; conditions: rated visually after about 3 weeks vs untreated controls
Outline: (§2)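 Foliar post-emergence treatment of one-leaf-stage weeds with WP or EC preparations in water plus 0.5% additive, sprayed at 600 L/ha. Visual efficacy was assessed after roughly 3 weeks relative to untreated controls, 100% being complete kill.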

[13] = tested on: Digitaria sanguinalis (DIGSA); assay: Herbicidal post-emergence action (B), 1280 g/ha; conditions: rated visually after about 3 weeks vs untreated controls
Outline: as §2

[14] = tested on: Echinochloa crus-galli (ECHCG); assay: Herbicidal post-emergence action (B), 1280 g/ha; conditions: rated visually after about 3 weeks vs untreated controls
Outline: as §2

Lolium rigidum (LOLRI) [15] = assay: Herbicidal post-emergence action (B), 1280 g/ha; conditions: one-leaf stage, rated after about 3 weeks vs untreated controls, 100% activity = the plants have died, 0% = like control plants
Outline: as §2

Stellaria media (STEME) [16] = assay: Herbicidal post-emergence action (B), 1280 g/ha
Outline: as §2

Veronica persica (VERPE) [17] = assay: Herbicidal post-emergence action (B), 1280 g/ha
Outline: as §2

[18] = tested on: Alopecurus myosuroides (ALOMY); assay: Herbicidal pre-emergence action (C), 320 g/ha; conditions: ca. 3 weeks
Outline: (§3)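 Pre-emergence soil-surface spray: WP/EC formulation in water plus 0.5% additive, 600 l/ha, applied over freshly sown, soil-covered seeds in sandy loam. Greenhouse, optimum conditions, ~3 weeks. Visual % damage vs untreated (100% = dead).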

[19] = tested on: Amaranthus retroflexus (AMARE); assay: Herbicidal pre-emergence action (C), 320 g/ha; conditions: ca. 3 weeks
Outline: as §3

[20] = tested on: Echinochloa crus-galli (ECHCG); assay: Herbicidal pre-emergence action (C), 320 g/ha; conditions: ca. 3 weeks
Outline: as §3

Lolium rigidum (LOLRI) [21] = assay: Herbicidal pre-emergence action (C), 320 g/ha; conditions: ca. 3 weeks
Outline: as §3

Setaria viridis (SETVI) [22] = assay: Herbicidal pre-emergence action (C), 320 g/ha; conditions: ca. 3 weeks
Outline: as §3

Veronica persica (VERPE) [23] = assay: Herbicidal pre-emergence action (C), 320 g/ha; conditions: ca. 3 weeks
Outline: as §3

[24] = tested on: Digitaria sanguinalis (DIGSA); assay: Herbicidal pre-emergence action (C), 320 g/ha; conditions: ca. 3 weeks
Outline: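 Weed and crop seeds sown in sandy loam; WP or EC formulations applied pre-emergence to the soil surface as aqueous suspension/emulsion with 0.5% additive at 600 l water/ha. Greenhouse-grown under optimum conditions; damage visually scored after ca. 3 weeks versus untreated controls (0% = as control, 100% = plants dead).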

CCc1cc2scnc2nc1-c1ccccc1C [Example I-093]
90%: ABUTH, herbicidal effect in percent (%) [1] | herbicidal effect AMARE [3] | ECHCG, herbicidal effect in percent (%) [5] | herbicidal effect AMARE [19] | herbicidal effect VERPE (Veronica persica (VERPE) [23])
100%: ALOMY, herbicidal effect in percent (%) [2] | DIGSA, herbicidal effect in percent (%) [4] | herbicidal effect KCHSC [6] | LOLRI, herbicidal effect in percent (%) (Lolium rigidum (LOLRI) [7]) | herbicidal effect MATIN [8] | POAAN, herbicidal effect in percent (%) (Poa annua (POAAN)) | herbicidal effect SETVI (Setaria viridis (SETVI) [9]) | herbicidal effect STEME (Stellaria media (STEME) [10]) | herbicidal effect VERPE (Veronica persica (VERPE) [11]) | herbicidal activity AMARE [12] | herbicidal activity DIGSA [13] | herbicidal activity ECHCG [14] | LOLRI, activity rated visually (%) (Lolium rigidum (LOLRI) [15]) | herbicidal effect STEME (Stellaria media (STEME) [16]) | herbicidal effect VERPE (Veronica persica (VERPE) [17]) | herbicidal effect ALOMY [18] | herbicidal effect ECHCG [20] | herbicidal effect LOLRI (Lolium rigidum (LOLRI) [21]) | herbicidal effect SETVI (Setaria viridis (SETVI) [22]) | herbicidal effect DIGSA [24]

Cc1cc2scnc2nc1-c1sccc1Cl [Example I-137]
90%: herbicidal effect MATIN [8] | LOLRI, activity rated visually (%) (Lolium rigidum (LOLRI) [15]) | herbicidal effect AMARE [19] | herbicidal effect VERPE (Veronica persica (VERPE) [23])
100%: ABUTH, herbicidal effect in percent (%) [1] | ALOMY, herbicidal effect in percent (%) [2] | herbicidal effect AMARE [3] | DIGSA, herbicidal effect in percent (%) [4] | ECHCG, herbicidal effect in percent (%) [5] | herbicidal effect KCHSC [6] | LOLRI, herbicidal effect in percent (%) (Lolium rigidum (LOLRI) [7]) | POAAN, herbicidal effect in percent (%) (Poa annua (POAAN)) | herbicidal effect SETVI (Setaria viridis (SETVI) [9]) | herbicidal effect STEME (Stellaria media (STEME) [10]) | herbicidal effect VERPE (Veronica persica (VERPE) [11]) | herbicidal activity AMARE [12] | herbicidal activity DIGSA [13] | herbicidal activity ECHCG [14] | herbicidal effect STEME (Stellaria media (STEME) [16]) | herbicidal effect VERPE (Veronica persica (VERPE) [17]) | herbicidal effect ALOMY [18] | herbicidal effect ECHCG [20] | herbicidal effect LOLRI (Lolium rigidum (LOLRI) [21]) | herbicidal effect SETVI (Setaria viridis (SETVI) [22]) | herbicidal effect DIGSA [24]
